Assay results as given in patent EP1496060B1, “Antitumoral analogs of ET-743” (PHARMA MAR, S.A., priority 2000, dated 2001).

Experiments:
[1] = system: A-549; assay: Cytotoxic activity, IC50, A-549; format: cell-based; details: Homo sapiens, A549
[2] = system: HT-29; assay: Cytotoxic activity, IC50, HT-29; format: cell-based; details: Homo sapiens
[3] = system: DU-145; assay: Cytotoxic activity, IC50, DU-145; format: cell-based; details: Homo sapiens
[4] = system: P-388; assay: Cytotoxic activity, IC50, P-388; format: cell-based; details: Mus musculus, P388
[5] = system: MEL-28; assay: Cytotoxic activity, IC50, MEL-28; format: cell-based; details: Homo sapiens, SK-MEL-28
[6] = system: RAMOS; details: ramos cells

**Q.** What does the source list for C/C=C/C(=O)NC[C@H]1c2c(c(OC(C)=O)c(C)c3c2OCO3)C[C@H]2[C@H]3c4c(cc(C)c(OC)c4O)C[C@@H]([C@H](C#N)N12)N3C?
**A.** IC50 [1]: 0.0008 µM; IC50 [2]: 0.0001 µM; IC50 [3]: 0.0008 µM

**Q.** COc1c(C)cc2c(c1O)[C@@H]1[C@@H]3Cc4c(OC(C)=O)c(C)c5c(c4[C@H](CNC(=O)CCc4ccccc4)N3[C@@H](O)[C@H](C2)N1C)OCO5 was tested. Which IC50 [2] did it give?
**A.** 0.0001 µM

**Q.** And the IC50 [3]?
**A.** 0.0001 µM

**Q.** For COc1c(C)cc2c(c1O)[C@@H]1[C@@H]3Cc4c(OC(C)=O)c(C)c5c(c4[C@H](CNC(=O)Cc4ccccc4)N3[C@@H](O)[C@H](C2)N1C)OCO5, which IC50 [4] is on record?
**A.** 0.0007 µM

**Q.** And the IC50 [1]?
**A.** 0.0007 µM

**Q.** And the IC50 [2]?
**A.** 0.0007 µM

**Q.** And the IC50 [5]?
**A.** 0.0007 µM

**Q.** And the IC50 [3]?
**A.** 0.0007 µM

**Q.** COCOc1c(OC)c(C)cc2c1C1C3Cc4c(OC(C)=O)c(C)c5c(c4C(COC(=O)C=Cc4ccccc4)N3C(C#N)C(C2)N1C)OCO5 (centres unmarked) was tested. Which IC50 [1] did it give?
**A.** 0.07 µM

**Q.** What about the IC50 [2] of the same compound?
**A.** 0.07 µM

**Q.** What about the IC50 [5] of the same compound?
**A.** 0.07 µM

**Q.** And the IC50 [3]?
**A.** 0.07 µM

**Q.** CCCC(=O)OCC1c2c(c(OC(C)=O)c(C)c3c2OCO3)CC2C3c4c(cc(C)c(OC)c4O)CC(C(C#N)N12)N3C (centres unmarked) was tested. Which IC50 [1] did it give?
**A.** 0.0008 µM

**Q.** What about the IC50 [2] of the same compound?
**A.** 0.0008 µM

**Q.** What about the IC50 [3] of the same compound?
**A.** 0.0008 µM

**Q.** What does the source list for COc1c(C)cc2c(c1O)C1C3Cc4c(OC(C)=O)c(C)c5c(c4C(COC(=O)CCc4ccccc4)N3C(C#N)C(C2)N1C)OCO5 (centres unmarked)?
**A.** IC50 [2]: 0.0001 µM; IC50 [3]: 0.0001 µM

**Q.** With COc1c(C)cc2c(c1O)C1C3Cc4c(OC(C)=O)c(C)c5c(c4C(COC(=O)C=Cc4ccccc4)N3C(C#N)C(C2)N1C)OCO5 (centres unmarked) as the compound, how does the IC50 [4] read?
**A.** 0.0007 µM

**Q.** What about the IC50 [1] of the same compound?
**A.** 0.0007 µM

**Q.** What about the IC50 [2] of the same compound?
**A.** 0.0007 µM

**Q.** And the IC50 [5]?
**A.** 0.0007 µM

**Q.** And the IC50 [3]?
**A.** 0.0007 µM

**Q.** For CCCC(=O)OCC1c2c(c(OC(C)=O)c(C)c3c2OCO3)CC2C3c4c(cc(C)c(OC)c4O)CC(C(O)N12)N3C (centres unmarked), which IC50 [2] is on record?
**A.** 0.0001 µM

**Q.** What about the IC50 [3] of the same compound?
**A.** 0.0001 µM

**Q.** COc1c(C)cc2c(c1O)C1C3Cc4c(OC(C)=O)c(C)c5c(c4C(COC(=O)C=Cc4cccc(C(F)(F)F)c4)N3C(O)C(C2)N1C)OCO5 (centres unmarked) was tested. Which IC50 [2] did it give?
**A.** 0.0001 µM

**Q.** What about the IC50 [3] of the same compound?
**A.** 0.0001 µM

**Q.** Which IC50 [2] does the source give for COc1c(C)cc2c(c1O)C1C3Cc4c(OC(C)=O)c(C)c5c(c4C(COC(=O)CCc4ccccc4)N3C(O)C(C2)N1C)OCO5 (centres unmarked) here?
**A.** 0.0001 µM

**Q.** And the IC50 [3]?
**A.** 0.0001 µM

**Q.** Which IC50 [1] does the source give for COc1c(C)cc2c(c1O)C1C3Cc4c(OC(C)=O)c(C)c5c(c4C(COC(=O)C=Cc4ccccc4)N3C(O)C(C2)N1C)OCO5 (centres unmarked) here?
**A.** 0.0007 µM

**Q.** And the IC50 [2]?
**A.** 0.0007 µM

**Q.** What about the IC50 [5] of the same compound?
**A.** 0.0007 µM

**Q.** What about the IC50 [3] of the same compound?
**A.** 0.0007 µM

**Q.** How did the IC50 [1] turn out when COc1c(C)cc2c(c1O)C1C3Cc4c(OC(C)=O)c(C)c5c(c4C(CNC(=O)C(CCCNC(=N)N)NC(=O)OC(C)(C)C)N3C(C#N)C(C2)N1C)OCO5 (centres unmarked) was run?
**A.** > 1 µM

**Q.** And the IC50 [2]?
**A.** > 1 µM

**Q.** COc1c(C)cc2c(c1O)C1C3Cc4c(OC(C)=O)c(C)c5c(c4C(CNC(=O)C(Cc4c[nH]c6ccccc46)NC(=O)OC(C)(C)C)N3C(O)C(C2)N1C)OCO5 (centres unmarked) was tested. Which IC50 [2] did it give?
**A.** 0.012 µM

**Q.** COc1c(C)cc2c(c1O)C1C3Cc4c(OC(C)=O)c(C)c5c(c4C(CNC(=O)c4cccnc4Cl)N3C(C#N)C(C2)N1C)OCO5 (centres unmarked) was tested. Which IC50 [2] did it give?
**A.** 0.00015 µM

**Q.** How did the IC50 [2] turn out when COc1c(C)cc2c(c1O)C1C3Cc4c(OC(C)=O)c(C)c5c(c4C(CNC(=O)c4cccnc4Cl)N3C(O)C(C2)N1C)OCO5 (centres unmarked) was run?
**A.** 0.00015 µM

**Q.** How did the IC50 [2] turn out when COc1c(C)cc2c(c1O)C1C3Cc4c(OC(C)=O)c(C)c5c(c4C(CNC(=O)CC4CCCCC4)N3C(C#N)C(C2)N1C)OCO5 (centres unmarked) was run?
**A.** 0.0015 µM

**Q.** How did the IC50 [2] turn out when COc1c(C)cc2c(c1OC(=O)CC1CCCCC1)C1C3Cc4c(OC(C)=O)c(C)c5c(c4C(CNC(=O)CC4CCCCC4)N3C(C#N)C(C2)N1C)OCO5 (centres unmarked) was run?
**A.** 0.013 µM

**Q.** For COc1c(C)cc2c(c1O)C1C3Cc4c(OC(C)=O)c(C)c5c(c4C(CNC(=O)CCC4CCCCC4)N3C(C#N)C(C2)N1C)OCO5 (centres unmarked), which IC50 [2] is on record?
**A.** 0.0015 µM

**Q.** How did the IC50 [2] turn out when COc1c(C)cc2c(c1OC(=O)CCC1CCCCC1)C1C3Cc4c(OC(C)=O)c(C)c5c(c4C(CNC(=O)CCC4CCCCC4)N3C(C#N)C(C2)N1C)OCO5 (centres unmarked) was run?
**A.** 0.12 µM

**Q.** COc1c(C)cc2c(c1O)[C@@H]1[C@@H]3Cc4c(OC(C)=O)c(C)c5c(c4[C@H](COC(=O)CCc4ccccc4)N3[C@@H](O)[C@H](C2)N1C)OCO5 was tested. Which IC50 [6] did it give?
**A.** 1.86 nM
